These results are taken from patent publication US20260216119A1, “NOVEL SOLUTIONS” (priority 2022, published 2026).

By Cmax is commonly meant the peak of the concentration-time curve.

Molecules are shown by their SMILES.

Data set [1] can be described thus: Calculated concentrations based on ventricle and CSF volumes. The data set is classed as in vivo. The conditions noted are these: dog; for Cmax: Beagle, icv or intrathecal, ventricle volume 2 ml; for Cmax CSF: CSF volume 20 mL.
The subject of a further data set is rats. The conditions noted are these: in 0.5% Cremophor in aqueous solution; cited from earlier work.
For data set [2] the following is noted: ambient conditions. On the procedure: A solution that remains intact to an extent acceptable for pharmaceutical use for the time required between preparing the solution and administering it to the patient (for example 2 hours, for example 1 hour) is considered herein to be “stable”.
The test system of the next data set is female rats. The conditions noted are these: cited from earlier work.
The next data set has as its target MEK2 (Homo sapiens, UniProt P36507). The conditions noted are these: cited from earlier work.
How the values of data set [3] were obtained:
0.79 g Cremophor EL (Trade Mark) was weighed in an Erlenmeyer flask, and 60 mL aCSF (obtained from Tocris Pharma) was added. […] The solution was then placed in an ultrasonic bath maintained at 25-28° C. for 20 minutes. […] The solution was ultrasonicated for another 25 minutes.
The mixture was then filtered using a Millipore Millex-LG, PTFE, 0.20 μm filter (SLLG025SS).
500 μL Cremophor EL was pipetted into an Erlenmeyer flask containing 40 mL in-house prepared aCSF. […] An additional 10 minutes of ultrasonication was carried out to ensure complete dissolution.

MEK2, sequence (P36507 whole entry, species assumed): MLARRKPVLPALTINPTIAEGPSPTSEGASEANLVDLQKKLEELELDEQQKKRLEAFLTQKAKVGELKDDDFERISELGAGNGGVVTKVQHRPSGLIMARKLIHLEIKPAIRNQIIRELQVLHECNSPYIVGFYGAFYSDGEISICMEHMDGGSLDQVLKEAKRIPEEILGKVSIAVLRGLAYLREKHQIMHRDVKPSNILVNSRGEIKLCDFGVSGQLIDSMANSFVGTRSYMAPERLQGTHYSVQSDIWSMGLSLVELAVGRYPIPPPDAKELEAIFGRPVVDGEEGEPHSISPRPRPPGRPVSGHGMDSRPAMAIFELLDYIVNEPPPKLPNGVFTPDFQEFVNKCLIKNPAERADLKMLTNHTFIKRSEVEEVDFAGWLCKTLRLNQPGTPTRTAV

Consider `N#CC(=C(/N)Sc1ccccc1N)/C(C#N)=C(\N)Sc1ccccc1N` [Example U0126, 1,4-Diamino-2,3-dicyano-1,4-bis(o-aminophenylmercapto) butadiene], for which the maximum concentration (Cmax) in data set [1] (20 μM/0.5 mL) was 5 µM; in data set [1] (100 μM/0.5 mL) it was 25 µM; in data set [1] (200 μM/0.5 mL) it was 50 µM. Moreover, the “Cmax CSF” value in data set [1] (20 μM/0.5 mL) was 0.5 µM; in data set [1] (100 μM/0.5 mL), 2.5 µM; in data set [1] (200 μM/0.5 mL) it was 5 µM. In the data set on rats, the “maximum tolerated intracerebroventricular (ICV) concentration in vivo” value is 10 µM. In data set [2], the “time solid form remains intact” value was “several decades”. The “long-term neurologic outcome after stroke” value in the data set on female rats is reported as “improves long-term neurologic outcome”. Besides, the “inhibitor of MEK2” value on MEK2 is listed as “inhibitor”. The “measured content of U0126” value in data set [3] (Example 2, clear solution after 0.20 μm PTFE filtration, 0.5% v/v Cremophor EL in aCSF) amounted to 68 µM. Moreover, the “U0126 content of filtered samples” value in data set [3] (Example 3, 0.5% Cremophor EL in aCSF, pH 8.6, after 0.20 μm PTFE filtration) was in the range of 85 to 99 µM.
